# BindingDB's records for patent US9688678 (Abbvie Deutschland, 2017)
# Molecular target: T1, Vasopressin V1b receptor (Homo sapiens, UniProt P47901)
# T1 sequence (P47901 whole entry): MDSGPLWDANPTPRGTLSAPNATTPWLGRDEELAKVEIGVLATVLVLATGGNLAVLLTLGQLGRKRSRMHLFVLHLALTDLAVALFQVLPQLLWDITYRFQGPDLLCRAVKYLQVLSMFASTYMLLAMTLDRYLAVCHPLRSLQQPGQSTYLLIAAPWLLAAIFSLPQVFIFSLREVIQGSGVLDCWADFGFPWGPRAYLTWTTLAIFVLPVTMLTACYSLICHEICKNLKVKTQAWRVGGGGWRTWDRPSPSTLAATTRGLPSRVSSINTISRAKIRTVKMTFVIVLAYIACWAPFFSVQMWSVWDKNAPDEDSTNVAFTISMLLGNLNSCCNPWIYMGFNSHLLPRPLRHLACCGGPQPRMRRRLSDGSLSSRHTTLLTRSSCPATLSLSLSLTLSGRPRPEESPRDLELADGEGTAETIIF
# Experiment: Binding Assay
# Conditions: pH 7.4; 25 °C
# Method: The nonspecific binding was determined with 1 μM AVP (Fluka 94836). All determinations were carried out as duplicate determinations. […] The liquid scintillation measurement took place in a Microbeta TriLux 12 (Wallac).
row,Structure (SMILES),Ki
1,"CCOc1ccc(OC)cc1[C@]1(N2CC3(CN(C4CCN(C)CC4)C3)C2)C(=O)N(S(=O)(=O)c2cccc(OC)n2)C2C=CC(C#N)=CC21 (stereo partly drawn) [US9688678, 32 (3S)-3-(2-ethoxy-5-methoxy-phenyl)-1-[(6-methoxy-2-pyridyl)sulfonyl]-3-[2-(1-methyl-4-piperidyl)-2,6-diazaspiro[3.3]heptan-6-yl]-2-oxo-indoline-5-carbonitrile]",in the range around 55 nM
2,"CCOc1ccc(OC)c(C2(N3CC4(CN(C5CCN(C6COC6)CC5)C4)C3)C(=O)N(S(=O)(=O)c3ccc(OC)cn3)C3C=CC(C#N)=CC32)c1 (stereo not drawn) [US9688678, 11 (+)-3-(2-ethoxy-5-methoxyphenyl)-1-((5-methoxypyridin-2-yl)sulfonyl)-3-(6-(1-(oxetan-3-yl)piperidin-4-yl)-2,6-diazaspiro[3.3]heptan-2-yl)-2-oxoindoline-5-carbonitrile]",< 1 nM
3,"COc1ccc(S(=O)(=O)N2C(=O)C(c3cc(OC)ccc3OC)(N3CC4(CN(C5CCN(C)CC5)C4)C3)C3C=C(C#N)C=CC32)nc1 (racemic) [US9688678, 21 (+-)-3-(2,5-dimethoxyphenyl)-1-[(5-methoxy-2-pyridyl)sulfonyl]-3-[2-(1-methyl-4-piperidyl)-2,6-diazaspiro[3.3]heptan-6-yl]-2-oxo-indoline-5-carbonitrile]",< 1 nM
4,"CCOc1ccc(OC)cc1C1(N2CC3(CN(C4CCN(C)CC4)C3)C2)C(=O)N(S(=O)(=O)c2cc(F)ccn2)C2C=CC(C#N)=CC21 (racemic) [US9688678, 16 (+-)-3-(2-ethoxy-5-methoxy-phenyl)-1-(4-fluorophenyl)sulfonyl-3-[2-(1-methyl-4-piperidyl)-2,6-diazaspiro[3.3]heptan-6-yl]-2-oxo-indoline-5-carbonitrile]",in the range around 55 nM
5,"CCOc1ccc(OC)cc1C1(N2CC3(CN(C4CCN(C)CC4)C3)C2)C(=O)N(S(=O)(=O)c2ccc(OC)cn2)C2C=C(C#N)C=CC21 (stereo not drawn) [US9688678, 29 (+-)-3-(2-ethoxy-5-methoxy-phenyl)-1-[(5-methoxy-2-pyridyl)sulfonyl]-3-[2-(1-methyl-4-piperidyl)-2,6-diazaspiro[3.3]heptan-6-yl]-2-oxo-indoline-6-carbonitrile]",in the range around 5.5 nM
6,"CCOc1ccc(OC)c(C2(N3CC4(CN(C5CCN(C)CC5)C4)C3)C(=O)N(S(=O)(=O)c3cccc4cccnc34)C3C=CC(C#N)=CC32)c1 (racemic) [US9688678, 3 (+-)-3-(2-ethoxy-5-methoxy-phenyl)-3-[2-(1-methyl-4-piperidyl)-2,6-diazaspiro[3.3]heptan-6-yl]-2-oxo-1-(8-quinolylsulfonyl)indoline-5-carbonitrile]",in the range around 55 nM
7,"CCOc1ccc(OC)cc1[C@]1(N2CC3(CN(C4CCN(C)CC4)C3)C2)C(=O)N(S(=O)(=O)c2ccc(Cl)cn2)C2C=CC(C#N)=CC21 (stereo partly drawn) [US9688678, 34 (3S)-1-[(5-chloro-2-pyridyl)sulfonyl]-3-(2-ethoxy-5-methoxy-phenyl)-3-[2-(1-methyl-4-piperidyl)-2,6-diazaspiro[3.3]heptan-6-yl]-2-oxo-indoline-5-carbonitrile]",< 1 nM
8,"CCOc1ccc(OC)cc1C1(N2CC3(CN(C4CCN(C)CC4)C3)C2)C(=O)N(S(=O)(=O)c2cc(C#N)ccn2)C2C=CC(C#N)=CC21 (racemic) [US9688678, 14 (+-)-1-(4-cyanophenyl)sulfonyl-3-(2-ethoxy-5-methoxy-phenyl)-3-[2-(1-methyl-4-piperidyl)-2,6-diazaspiro[3.3]heptan-6-yl]-2-oxo-indoline-5-carbonitrile]",in the range around 55 nM
9,"COc1ccc(S(=O)(=O)N2C(=O)C(c3ccccc3OC)(N3CC4(CN(C5CCN(C)CC5)C4)C3)C3C=C(C#N)C=CC32)nc1 (stereo not drawn) [US9688678, 18 (+-)3-(2-methoxyphenyl)-1-[(5-methoxy-2-pyridyl)sulfonyl]-3-[2-(1-methyl-4-piperidyl)-2,6-diazaspiro[3.3]heptan-6-yl]-2-oxo-indoline-5-carbonitrile]",< 1 nM
10,"CCOc1cnc(OCC)c(C2(N3CC4(CN(C5CCN(C)CC5)C4)C3)C(=O)N(S(=O)(=O)c3cc(OC)ccn3)C3C=CC(C#N)=CC32)c1 (stereo not drawn) [US9688678, 12 (+-)-3-(2-ethoxy-3-pyridyl)-1-(4-methoxyphenyl)sulfonyl-3-[2-(1-methyl-4-piperidyl)-2,6-diazaspiro[3.3]heptan-6-yl]-2-oxo-indoline-5-carbonitrile]",in the range around 55 nM
11,"CCOc1ccc(OC)cc1C1(N2CC3(CN(N4CCN(C)CC4)C3)C2)C(=O)N(S(=O)(=O)c2ccc(OC)cn2)C2C=CC(C#N)=CC21 (racemic) [US9688678, 17 (+-)-3-(2-ethoxy-5-methoxy-phenyl)-1-[(5-methoxy-2-pyridyl)sulfonyl]-3-[2-(4-methylpiperazin-1-yl)-6-azaspiro[3.3]heptan-6-yl]-2-oxo-indoline-5-carbonitrile]",< 1 nM
12,"COc1ccc(S(=O)(=O)N2C(=O)C(c3ccccc3OC)(N3CC4(CN(C5CCN(C)CC5)C4)C3)C3C=C(C#N)C=CC32)nc1 (stereo not drawn) [US9688678, 18A (+)-3-(2-methoxyphenyl)-1-[(5-methoxy-2-pyridyl)sulfonyl]-3-[2-(1-methyl-4-piperidyl)-2,6-diazaspiro[3.3]heptan-6-yl]-2-oxo-indoline-5-carbonitrile]",< 1 nM
13,"COc1ccc(S(=O)(=O)N2C(=O)C(c3cccnc3OC)(N3CC4(CN(C5CCN(C)CC5)C4)C3)C3C=C(C#N)C=CC32)nc1 (stereo not drawn) [US9688678, 9A (+)-3-(2-ethoxy-3-pyridyl)-1-[(5-methoxy-2-pyridyl)sulfonyl]-3-[2-(1-methyl-4-piperidyl)-2,6-diazaspiro[3.3]heptan-6-yl]-2-oxo-indoline-5-carbonitrile]",< 1 nM
14,"CCOc1ccc(OC)cc1C1(N2CC3(CN(N4CCN(C)CC4)C3)C2)C(=O)N(S(=O)(=O)c2ccc(OC)cn2)C2C=CC(C#N)=CC21 (single isomer, unassigned; (+)) [US9688678, 17B (+)-3-(2-ethoxy-5-methoxy-phenyl)-1-[(5-methoxy-2-pyridyl)sulfonyl]-3-[2-(4-methylpiperazin-1-yl)-6-azaspiro[3.3]heptan-6-yl]-2-oxo-indoline-5-carbonitrile]",< 1 nM
15,"CCOc1ccc(OC)cc1C1(N2CC3(CN(C4CCN(C(C)C)CC4)C3)C2)C(=O)N(S(=O)(=O)c2ccc(OC)cn2)C2C=CC(C#N)=CC21 (racemic) [US9688678, 19 (+-)-3-(2-ethoxy-5-methoxy-phenyl)-3-[2-(1-isopropyl-4-piperidyl)-2,6-diazaspiro[3.3]heptan-6-yl]-1-[(5-methoxy-2-pyridyl)sulfonyl]-2-oxo-indoline-5-carbonitrile]",< 1 nM
16,"CCOc1ccc(OC)c(C2(N3CC4(CN(C5CCN(C)CC5)C4)C3)C(=O)N(S(=O)(=O)c3ccc(OC)cc3OC)C3C=CC(C#N)=CC32)c1 (racemic) [US9688678, 2 (+-)-1-(2,4-dimethoxyphenyl)sulfonyl-3-(2-ethoxy-5-methoxy-phenyl)-3-[2-(1-methyl-4-piperidyl)-2,6-diazaspiro[3.3]heptan-6-yl]-2-oxo-indoline-5-carbonitrile]",in the range around 55 nM
